# Source: article PMC7125202, “Targeting of radioactive platinum-bisphosphonate anticancer drugs to bone of high metabolic activity” (Scientific Reports, 2020)
# Columns and labels:
# [1] = Pt-BP pH stability assessed by 31P NMR; format: physicochemical; conditions: 120 mM NaCl, D2O, 37 °C
# Description: ^31P NMR spectra were recorded on a Bruker Avance III […] instrument. Standard pulse sequences were used for ^31P{1H} (121.5 MHz) spectra. Chemical shifts (^31P) were referenced to external H3PO4 (85% w/w; 0 ppm). A Crison Micro-pH meter Model 2002, equipped with Crison microcombination electrodes (5- and 3-mm diameter) and calibrated with Crison standard buffer solution at pH 4.01, 7.02, and 10.00, was used for pH measurements. The pH readings from the pH meter for D2O solutions are indicated as pD values and are uncorrected for the effect of deuterium on glass electrodes. The stability of Pt-BP in buffered solutions at 37 °C was assessed by ^31P NMR spectroscopy as previously reported. Pt-BP (∼4 mg) was dissolved in 0.8 mL of D2O containing (i) 50 mM 4-(2-hydroxyethyl)-1-piperazineethanesulfonic acid) (HEPES) buffer (pD = 7.4) and 120 mM NaCl or (ii) 50 mM 2-(N-morpholino)ethanesulfonic acid (MES) buffer (pD = 5.25) and 120 mM NaCl. The resulting two solutions were transferred into NMR tubes and maintained at 37 °C. ^31P NMR spectra were recorded over a period of 15 days. The relative concentrations of the individual species in solution were deduced from integration of the ^31P signals.
# To investigate the stability of Pt-BP in near-physiological conditions, we utilized a medium consisting of D2O containing HEPES buffer (50 mM, pH = 7.4) and NaCl (120 mM) at 37 °C, in which we analyzed Pt-BP stability by ^31P-NMR spectroscopy. […] Two other asymmetrical species are visible in the ^31P-NMR spectrum recorded after 3 h as evidenced by the two pairs of doublets falling at 28.15 and 22.98 ppm and 26.25 and 21.51 ppm (indicated by the black squares and diamonds in Supplement Fig. 2A). […]
# To simulate the acidic environment in tumor tissue^3,4, we explored the stability of Pt-BP complexes at pD = 5.25 at 37 °C by ^31P-NMR spectroscopy (Supplement Fig. 2B). […] However, the formation of M was slower at acidic pD, while its hydrolysis, with concomitant formation of free bisphosphonate (BP), was faster than at pD 7.4 since Pt-BP and BP were detected after 48 h (Supplement Fig. 2B).
# [2] = tested on: genomic DNA; assay: Pt-DNA adducts quantification using High Resolution ICP-MS; format: in vivo, C57Bl/6N mice; conditions: 24 h after i.v. injection
# Excerpt: The remaining half of the tissues from all mice were dissected and weighed for DNA extraction. DNA was isolated using DNeasy Blood & Tissue Kit (Qiagen, USA) for soft tissue and ChargeSwitch® gDNA Plant Kit (Thermofisher, USA) for bone samples. The DNA was digested with DNase I Solution (Thermofisher, USA) and filtered using 0.2 µm acrodisc GHP before analysis for Pt content using high resolution-ICP-MS (Element2, Thermo Finnigan). The detection limit for determining the platinum concentration was 2 ng/l. The standard solutions were prepared from 1000 mg·1^−1 platinum ICP standard Certipur (1.70341.0100, Merck) ranging from 5 ppt to 10 ppb. The selected isotopes for platinum were ^194Pt and ^195Pt. Furthermore, thallium (Tl) was added as an internal standard and determined at a molecular mass of 205 Da, which was prepared using a 1000 mg·1^−1 thallium standard (CGTL-1, Inorganic Ventures) to correct for matrix effects and long-term fluctuations of the analytical signal. The Pt-DNA adduct concentration is represented as percentage of Pt involved in adduct formation to the total amount of Pt accumulated in the specific tissue.
smiles,measurement,setting,value
"NCCN.NCCN.O.O.O.O=S(=O)([O-])O.[NH3+]CC1(O)P2(=O)[O][Pt][O]P1(=O)[O][Pt][O]2 (stereo not drawn) [Pt-BP, dinuclear bis<ethylenediamineplatinum(II) > -2-amino-1-hydroxyethane-1,1-diyl-bisphosphonate complex]",time of release of both Pt(en) moieties (free BP detected),"[1]; pD 5.25, 50 mM MES",48 h
same,time after which no traces of the starting Pt-BP complex were observed,"[1]; pD 7.4, 50 mM HEPES",≤ 24 h
same,time of release of the second Pt(en) moiety (appearance of free BP),"[1]; pD 7.4, 50 mM HEPES",96 h
same,"Pt-DNA adduct formation relative to total Pt uptake, all tissues except kidney and spleen",[2],< 0.5%
same,"Pt-DNA adduct formation relative to total Pt uptake, kidney",[2],2.8%
same,"Pt-DNA adduct formation relative to total Pt uptake, spleen",[2],1.4%
